Results: ChEMBL document CHEMBL1201862, “PubChem BioAssay data set” (2004)
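How tested: cells in 96-well plates exposed to compound for 48 hours at five concentrations. At the GI50, growth is halved.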 Activity calls are given as the source filed them. Cut-off read from the data, not from the text of the source: active = GI50 up to about 1.1 µM and inactive = higher.

Legend:
Assay in all cases: DTP human tumour cell line panel, 48 h
OVCAR-3 = system: OVCAR-3
SF-268 = system: SF-268
SW-620 = system: SW-620
NCI-H226 = system: NCI-H226
OVCAR-8 = system: OVCAR-8
SF-539 = system: SF-539
SF-295 = system: SF-295
OVCAR-5 = system: OVCAR-5
DLD-1 = system: DLD-1
HT-29 = system: HT-29
SK-MEL-28 = system: SK-MEL-28
U-251 = system: U-251
SNB-78 = system: SNB-78
DMS-114 = system: DMS-114
COLO 205 = system: COLO 205
SK-OV-3 = system: SK-OV-3
CAKI-1 = system: CAKI-1
SK-MEL-5 = system: SK-MEL-5
A498 = system: A498
UACC-257 = system: UACC-257
HCT-116 = system: HCT-116
NCI/ADR-RES = system: NCI/ADR-RES
Malme-3M = system: Malme-3M
SK-MEL-2 = system: SK-MEL-2
MCF7 = system: MCF7
HOP-92 = system: HOP-92
KM-20L2 = system: KM-20L2
SNB-19 = system: SNB-19
HL-60 = system: HL-60
HOP-62 = system: HOP-62
DMS-273 = system: DMS-273
UO-31 = system: UO-31
IGROV-1 = system: IGROV-1
MOLT-4 = system: MOLT-4
786-0 = system: 786-0
SR = system: SR
M19-MEL = system: M19-MEL
ACHN = system: ACHN
M14 = system: M14
EKVX = system: EKVX
CCRF-CEM = system: CCRF-CEM
HCT-15 = system: HCT-15
A549 = system: A549
TK-10 = system: TK-10
NCI-H23 = system: NCI-H23
SNB-75 = system: SNB-75
SN12C = system: SN12C
KM12 = system: KM12
K562 = system: K562
LXFL 529 = system: LXFL 529
RPMI-8226 = system: RPMI-8226
LOX IMVI = system: LOX IMVI
NCI-H522 = system: NCI-H522
XF498 = system: XF498
UACC-62 = system: UACC-62

## COC(=O)C1C(O)C(C)C(O)C(C)/C=C\C=C(C)C(=O)Nc2c(C)c(OC(C)=O)c3c(c2O)C(=O)C(C)=C2OCOC(=C23)C(C)=CC(C)(O)C(O)C(C)C1O (centres undefined)
OVCAR-3
  GI50: 42.4 µM (inactive)
SF-268
  GI50: 43.9 µM (inactive)
SW-620
  GI50: 25 µM (inactive)
NCI-H226
  GI50: 61.7 µM (inactive)
OVCAR-8
  GI50: 28.6 µM (inactive)
SF-539
  GI50: > 60.5 µM (inactive)
SF-295
  GI50: 62.5 µM (inactive)
OVCAR-5
  GI50: > 75 µM (inactive)
DLD-1
  GI50: 18.3 µM (inactive)
HT-29
  GI50: 21.7 µM (inactive)
SK-MEL-28
  GI50: 26.6 µM (inactive)
U-251
  GI50: 60.4 µM (inactive)
SNB-78
  GI50: 41.4 µM (inactive)
DMS-114
  GI50: 19.7 µM (inactive)
COLO 205
  GI50: 17.4 µM (inactive)
SK-OV-3
  GI50: > 75 µM (inactive)
CAKI-1
  GI50: 33.7 µM (inactive)
SK-MEL-5
  GI50: 40 µM (inactive)
A498
  GI50: 63.1 µM (inactive)
UACC-257
  GI50: 32.1 µM (inactive)
HCT-116
  GI50: 26.4 µM (inactive)
NCI/ADR-RES
  GI50: 56.9 µM (inactive)
Malme-3M
  GI50: 45.4 µM (inactive)
SK-MEL-2
  GI50: 18.1 µM (inactive)
MCF7
  GI50: 20.1 µM (inactive)
HOP-92
  GI50: 60.1 µM (inactive)
KM-20L2
  GI50: 34 µM (inactive)
SNB-19
  GI50: > 75 µM (inactive)
HL-60
  GI50: 18.7 µM (inactive)
HOP-62
  GI50: > 75 µM (inactive)
DMS-273
  GI50: 52.6 µM (inactive)
UO-31
  GI50: 72.6 µM (inactive)
IGROV-1
  GI50: > 75 µM (inactive)

## COc1ccc(/C(C#N)=C2/O/C(=N/N)C(c3ccc(OC)c(OC)c3)C2=O)cc1OC (centres undefined)
OVCAR-3
  GI50: > 100 µM (inactive)
SF-268
  GI50: > 100 µM (inactive)
MOLT-4
  GI50: > 100 µM (inactive)
786-0
  GI50: > 100 µM (inactive)
SW-620
  GI50: > 100 µM (inactive)
NCI-H226
  GI50: > 100 µM (inactive)
SF-539
  GI50: > 100 µM (inactive)
SF-295
  GI50: > 100 µM (inactive)
SR
  GI50: > 100 µM (inactive)
M19-MEL
  GI50: > 100 µM (inactive)
ACHN
  GI50: > 100 µM (inactive)
DLD-1
  GI50: > 100 µM (inactive)
M14
  GI50: > 100 µM (inactive)
HT-29
  GI50: > 100 µM (inactive)
SK-MEL-28
  GI50: > 100 µM (inactive)
U-251
  GI50: > 100 µM (inactive)
SNB-78
  GI50: > 100 µM (inactive)
EKVX
  GI50: > 100 µM (inactive)
CCRF-CEM
  GI50: > 100 µM (inactive)
HCT-15
  GI50: > 100 µM
A549
  GI50: > 100 µM (inactive)
TK-10
  GI50: > 100 µM (inactive)
SK-OV-3
  GI50: > 100 µM (inactive)
CAKI-1
  GI50: > 100 µM (inactive)
SK-MEL-5
  GI50: > 100 µM (inactive)
NCI-H23
  GI50: > 100 µM (inactive)
SNB-75
  GI50: > 100 µM (inactive)
UACC-257
  GI50: > 100 µM (inactive)
SN12C
  GI50: > 100 µM (inactive)
HCT-116
  GI50: > 100 µM (inactive)
KM12
  GI50: > 100 µM (inactive)
K562
  GI50: > 100 µM (inactive)
Malme-3M
  GI50: > 100 µM (inactive)
SK-MEL-2
  GI50: > 100 µM (inactive)
LXFL 529
  GI50: > 100 µM (inactive)
HOP-92
  GI50: > 100 µM (inactive)
RPMI-8226
  GI50: > 100 µM (inactive)
KM-20L2
  GI50: > 100 µM (inactive)
HL-60
  GI50: > 100 µM (inactive)
LOX IMVI
  GI50: > 100 µM (inactive)
NCI-H522
  GI50: > 100 µM (inactive)
XF498
  GI50: > 100 µM (inactive)
DMS-273
  GI50: > 100 µM (inactive)
UACC-62
  GI50: > 100 µM (inactive)
UO-31
  GI50: > 100 µM (inactive)
IGROV-1
  GI50: > 100 µM (inactive)
